Results from paper PMC8196973, “Synthesis, Molecular Docking Analysis and Biological Evaluations of Saccharide-Modified Thiadiazole Sulfonamide Derivatives” (International Journal of Molecular Sciences, 2021).

Legend:
[1] = tested on: human colon cancer HT-29 cells; experiment: CCK-8 cell viability assay, HT-29; assay type: cell-based; details: HT-29, normoxic and hypoxic, 48 h, Figure 5
Description: (§1) The MDA-MB-231, HT-29 and MG-63 cell lines were provided by KeyGEN BioTECH Ltd (Nanjing, Jiangsu, China). The cells were digested and counted to prepare a cell suspension of 5.0 × 10^4 cells/mL, and then 100 μL of cell suspension was added to each well of the 96-well cell culture plate. The plates were placed in a 37 °C, 5% CO2 incubator (Corning Incorporated, Corning, New York, USA) for 24 h. The drug was diluted with the culture medium to the required concentration, ed100 μL of the corresponding drug-containing medium was added to each well, and a negative control group was set up at the same time. The 96-well cell culture plates were placed into a normoxic incubator (37 °C, 5% CO2) and hypoxic incubator (37 °C, 5% CO2, 0.5% O2, 94.5% N2) for 48 h. Finally, the 96-well plate was stained with CCK-8 and the OD value determined (λ = 450 nm).

human osteosarcoma MG-63 = experiment: CCK-8 cell viability assay, MG-63; assay type: cell-based; details: hypoxic conditions
Description: Then, considering the high inhibitory activity of 14a on the two isoforms of CA IX and XII, we evaluated the inhibitory activity of 14a on human osteosarcoma MG-63 featuring high expression of CA IX and XII.
as §1

hCA XII = hCA XII (Homo sapiens, UniProt O43570); experiment: hCA XII enzyme inhibition assay (4-NPA hydrolysis)
Chain of hCA XII (O43570 25-354): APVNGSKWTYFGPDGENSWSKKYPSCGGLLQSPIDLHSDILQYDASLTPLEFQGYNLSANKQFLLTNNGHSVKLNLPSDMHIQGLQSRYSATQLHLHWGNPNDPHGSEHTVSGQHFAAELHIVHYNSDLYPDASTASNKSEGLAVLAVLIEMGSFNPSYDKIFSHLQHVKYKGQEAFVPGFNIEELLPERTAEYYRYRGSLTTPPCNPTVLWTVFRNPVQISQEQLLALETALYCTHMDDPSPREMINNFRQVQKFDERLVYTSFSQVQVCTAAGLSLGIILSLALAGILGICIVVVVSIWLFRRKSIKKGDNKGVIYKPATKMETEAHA
Description: (§4) Carbonic anhydrase can catalyze the hydrolysis of 4-nitrophenyl acetate (4-NPA). […] The experimental buffer consisted of 15 mmol/L 4-(2-hydroxyethyl)-1-piperazineethanesulfonic acid (HEPES) (pH = 7.40), 0.01% tetraethylene glycol monododecyl ether (Brij), and 100 mmol/L NaCl. […] Then, 18 μL of enzyme solution was transferred into 384-well plates in duplicate. Stock solutions of the inhibitors (10.0 mmol/L) were prepared using DMSO as solvent, and then diluted 1:3 with DMSO. […] Then 2.00 μL of each inhibitor was added to each well. All compounds were allowed to incubate with the enzyme for 15 min at 25 °C to form the Enzyme-Inhibitor (E-I) complex. After that, substrate 4-NPA (1.00 mmol/L, 20.00 μL, Sigma-Aldrich, St. Louis, MI, USA) was added into the E-I complex solution and incubated for 60, 90, 90 min at 25 °C, respectively.

hCA II = hCA II (Homo sapiens, UniProt P00918); experiment: hCA II enzyme inhibition assay (4-NPA hydrolysis)
Description: as §4

hCA IX = hCA IX (Homo sapiens, UniProt Q16790); experiment: hCA IX enzyme inhibition assay (4-NPA hydrolysis)
Description: as §4

[2] = tested on: breast adenocarcinoma MDA-MB-231 cells; experiment: CCK-8 cell viability assay, MDA-MB-231; assay type: cell-based, human; details: MDA-MB-231, normoxic and hypoxic, 48 h, Figure 5
Description: as §1

HT-29 = experiment: Extracellular pH measurement, HT-29; assay type: cell-based, human; details: HT-29, 0.1 and 1 mM, normoxic and hypoxic, Figure 7
Description: (§2) The high expression of CA IX plays an important role in the maintenance of the tumor cell microenvironment, and inhibiting its activity might have a potential impact on the pH of the tumor microenvironment. To evaluate the effect of compounds on the pH of the microenvironment, the pH values under normoxic and hypoxic conditions were determined in the presence of compounds 14b, 14h, and 14p. […] In addition, this improvement in pH was dose-dependent.
(§3) The measurement of the change of extracellular pH referred to the reported literature. In brief, cancer cells were incubated for 12 h. After removing the medium, fresh medium was added to the plates and then incubated for 48 h under hypoxia or normoxia. The pH of the medium was measured immediately. The tested compounds were dissolved in DMSO and diluted with culture medium to the desired concentration. After the addition of tested compounds, the same procedure was repeated.

MDA-MB-231 = experiment: Extracellular pH measurement, MDA-MB-231; assay type: cell-based, human; details: MDA-MB-231, 0.1 and 1 mM, normoxic and hypoxic, Figure 7
Description: as §2, §3

IC50 (hCA XII)	IC50 (hCA II)	IC50 (hCA IX)	Structure (SMILES)	inhibitory activity on cell viability compared with AZM [1]	effect on MG-63 viability compared with AZM (human osteosarcoma MG-63)	reduction of viability of MG-63 cells (human osteosarcoma MG-63; 800 μM, 48 h)	inhibitory activity on cell viability compared with AZM [2]	effect on extracellular (tumor) pH (HT-29)	effect on extracellular (tumor) pH (MDA-MB-231)
141 ± 5.5 nM	141 ± 12.9 nM	29 ± 4.2 nM	NS(=O)(=O)c1nnc(NC(=O)c2ccc(NC(=O)CCCC(=O)N[C@@H]3O[C@H](CO)[C@@H](O)[C@H](O)[C@H]3O)cc2)s1 [Compound 14a, N^1-(4-((5-Sulfamoyl-1,3,4-thiadiazol-2-yl)carbamoyl)phenyl)-N^5-((2R,3R,4S,5S,6R)-3,4,5-trihydroxy-6-(hydroxymethyl)tetrahydro-2H-pyran-2-yl)glutaramide]	better than those of the positive control drug AZM	significantly better than that of the positive control AZM	approximately 30%	better than those of the positive control drug AZM	–	–
56 ± 8.5 nM	80.3 ± 11.5 nM	29 ± 1.5 nM	NS(=O)(=O)c1nnc(NC(=O)c2cccc(NC(=O)CCCC(=O)N[C@@H]3O[C@H](CO)[C@@H](O)[C@H](O)[C@H]3O)c2)s1 [Compound 14b, N^1-(3-((5-Sulfamoyl-1,3,4-thiadiazol-2-yl)carbamoyl)phenyl)-N^5-((2R,3R,4S,5S,6R)-3,4,5-trihydroxy-6-(hydroxymethyl)tetrahydro-2H-pyran-2-yl)glutaramide]	better than those of the positive control drug AZM	–	–	better than those of the positive control drug AZM	increased tumor pH to varying degrees	increased tumor pH to varying degrees
84.9 ± 7.6 nM	272 ± 9 nM	68.8 ± 10.2 nM	COc1cc(C(=O)Nc2nnc(S(N)(=O)=O)s2)ccc1NC(=O)CCCC(=O)N[C@@H]1O[C@H](CO)[C@@H](O)[C@H](O)[C@H]1O [Compound 14h, N^1-(2-Methoxy-4-((5-sulfamoyl-1,3,4-thiadiazol-2-yl)carbamoyl)phenyl)-N^5-((2R,3R,4S,5S,6R)-3,4,5-trihydroxy-6-(hydroxymethyl)tetrahydro-2H-pyran-2-yl)glutaramide]	better than those of the positive control drug AZM	–	–	better than those of the positive control drug AZM	increased tumor pH to varying degrees	increased tumor pH to varying degrees
42.3 ± 9.4 nM	332 ± 16.8 nM	47.9 ± 7.1 nM	COc1cc(C(=O)Nc2nnc(S(N)(=O)=O)s2)ccc1NC(=O)CCC(=O)N[C@@H]1O[C@H](CO)[C@@H](O)[C@H](O)[C@H]1O [Compound 14p, N^1-(2-Methoxy-4-((5-sulfamoyl-1,3,4-thiadiazol-2-yl)carbamoyl)phenyl)-N^4-((2R,3R,4S,5S,6R)-3,4,5-trihydroxy-6-(hydroxymethyl)tetrahydro-2H-pyran-2-yl)succinimide]	better than those of the positive control drug AZM	–	–	better than those of the positive control drug AZM	increased tumor pH to varying degrees	increased tumor pH to varying degrees
